Assay: Human HepG2 cell viability assay in 384 well format
Type: toxicity, cell-based
Set-up: dose 125 nL, time 70.5 hour; concentration not given beside the values
Conditions: HepG2 cells, read-out: Inhibition

SMILES	cytotoxicity at 70.5 h
COCCNC(=O)NCCS(=O)(=O)N1CCN(c2cccc(C)c2)CC1	-12.5%
Cc1cc(C(=O)N2CCCC(Cn3cc(C4CC4)nn3)C2)nc(C)n1 (centres undefined)	-13.2%
Cc1cccc(N2Cc3nc(N4CCC(C)CC4)ncc3C2=O)c1	-5.12%
Cc1nc(C(=O)N2CCN(c3ncccn3)[C@@H]3CS(=O)(=O)C[C@@H]32)cs1	-7.79%
COc1ncccc1CN1CCc2[nH]nc(C(=O)N(C)C)c2C1	-11.3%
CN(Cc1cccnc1)[C@@H]1CN(c2ccccn2)[C@@H]2CCCO[C@H]12	-9.04%
COC(=O)c1cc(OCC2CCC2)cc(C(=O)N[C@@H](C)CO)c1	-22.2%
O=C(c1cc2c([nH]c1=O)CCC2)N1CCCC1c1ccccc1 (centres undefined)	-4.54%
O=C(NCc1ccco1)N1CCCCC1c1nc(-c2ccncc2)no1 (centres undefined)	-12.6%
COc1ccc(F)cc1C[S+]([O-])CC(=O)NCc1ccccc1 (centres undefined)	-4.53%
COc1nc(C)c(C(=O)N(C)Cc2nc(-c3ccccn3)no2)s1	5.05%
CCc1cc(N(C)Cc2noc(CC(C)C)n2)ncn1	21.2%
CCc1ccsc1C(=O)N1CCN(CC(N)=O)CC1	13.8%
CCOc1ncccc1CNC(=O)c1csc(Br)c1	-8.48%
Cc1c[nH]c(CN2CCC3(CCCN(Cc4ccc(F)c(F)c4)C3)C2)n1 (centres undefined)	0.269%
COc1ccccc1CC(C)(C)C(=O)NCC(=O)Nc1cccnc1	3.9%
Cc1nc(NC(=O)c2c(-n3cnnn3)sc3c2CCCC3)sc1C	-10.4%
CN(CCc1ccccn1)C(=O)C(O)c1cc(Cl)cc(Cl)c1 (centres undefined)	42.8%
CC[C@H](Nc1nc(C(C)C)nc2c1cnn2C)c1ccccc1	-8.04%
Cn1cccc1C(=O)N1CCc2ncc(Cn3cccn3)n2CC1	16.9%
COc1cc(CN2CCn3c(CO)nnc3C2)ccc1OC(C)C	34.7%
CCCc1cc(=O)n(CC(=O)NC(C)C)c(-n2nc(C)cc2C)n1	-4.73%
CN(C)CCCNC(=O)c1cc(Br)c2c(c1)OCCO2	-7.25%

SMILES	cytotoxicity at 70.5 h
CS(=O)(=O)CCN1CCN(c2ccc(Cl)cn2)CC1	1.44%
CCn1cc2c(n1)C(COCC1CC1)CN(c1ccc(C)nn1)C2 (centres undefined)	-16.7%
COc1cccc(CN2CCC3(CC2)CCN(c2ncc(C)cn2)C3)c1	-0.283%
Cc1ccc(CN(C)C(=O)c2cc3c(c(S(N)(=O)=O)c2)CCC3)o1	-1.72%
COCCNC(=O)C1(c2ccccc2C)CCOCC1	17.1%
COC[C@H]1CCC[C@]12CN(C(=O)NCc1ccccc1)CCO2	-16.8%
CC(CNC(=O)c1ccc(C#N)cc1)N1CCc2ccccc21 (centres undefined)	0.334%
CCn1cc(CN2CCN(CC(O)c3ccc(C)cc3C)CC2)cn1 (centres undefined)	-4.8%
CCc1cc(O)n2nc(C3CCN(C(=O)c4cccnc4)CC3)cc2n1	21.2%
NC(=O)C1(Cc2ccccc2-c2cncnc2)CCCNC1 (centres undefined)	-10.3%
Cc1ccc2c(c1)CCC2NC(=O)N1CCC(C(N)=O)CC1 (centres undefined)	-6.61%
O=C(NCc1cnc2n1CCN(CC1CC1)C2)C1CC1	28%
COCCOCC(=O)N1CCC2(CCCN(C3CCOCC3)C2=O)C1 (centres undefined)	11.4%
CCCc1nc(CN2CCN(Cc3noc(CCC)n3)CC2)no1	11.4%
Cc1cccc(C(=O)N2CCC3(CC2)CC(c2ccccc2)C(=O)N3)c1 (centres undefined)	-0.963%
Cc1ccc(N2C[C@H]3OCC[C@H]3[C@H](C(=O)NCC3CC3)C2)nn1	-12.5%
O=C(Cc1ccco1)N1C[C@H]2CCC[C@@]2(COc2cccnc2)C1	-5.14%
CC(c1ccc(Cl)cc1)N1CCN(CCS(C)(=O)=O)CC1 (centres undefined)	-6.43%
COc1ccc(OCCN2CCN(Cc3nccn3C)CC2)cc1	12.8%
Cc1ccc(CN2Cc3nnn(C)c3C(COCC3CC3)C2)s1 (centres undefined)	4.45%
Cn1cc(CN2CCc3ccc(=O)n(Cc4ccncc4)c3CC2)cn1	-7%
O=C(c1cc2c(s1)CCC2)N1CCC(c2ccncc2)CC1	15.8%
Cc1csc(C(=O)N2CCC(O)(CN3CCc4ccccc4C3)C2)c1 (centres undefined)	-3.4%

SMILES	cytotoxicity at 70.5 h
CC(NC(=O)N1CCC(c2ccccc2)CC1)c1nncn1C (centres undefined)	-3.28%
CNC(=O)c1c(C)cccc1NCc1noc(C2CC2)n1	-2.54%
CCN(c1ccccc1)S(=O)(=O)c1cc(C(=O)O)cc2c1CCC2	21.2%
CCc1ccc(C(=O)N2CCCC(c3noc(CC)n3)C2)o1 (centres undefined)	-2.81%
CC(C)CC(C(=O)N(C)Cc1ncnn1C)N1CCCCC1=O (centres undefined)	-2.2%
C1CCN(CCOC2CCNCC2)C1	-2.17%
CCCc1nnc(N2CCN(c3cccc(OC)c3)C(=O)C2)o1	15.6%
c1coc(CN2CCn3c(nc4ccccc43)C2)c1	29.8%
Cc1cc(C(=O)N2CCCC3(CN(C)C(=O)O3)C2)c2ccc(F)cc2n1 (centres undefined)	16.1%
Cc1cc(NC(=O)CN(CC(C)O)c2ccccc2)on1 (centres undefined)	-3.15%
Cc1nc(C(=O)N2CCCC2c2noc(C)n2)c[nH]1 (centres undefined)	-4.04%
CCN(Cc1nccn1C)C1CCN(c2ccccc2)C1=O (centres undefined)	-2.87%
Cc1nc(CNC(=O)N(Cc2ccccc2)CC(C)(C)O)oc1C	-3.06%
O=C(NC[C@]12COC[C@H]1CN(Cc1cccs1)C2)c1ccsc1	-9.66%
CCOC1CC2(CCN(c3cnccn3)CC2)c2ccccc21 (centres undefined)	-4.37%
Cn1ccnc1CN1CCC2(CC1)CC(N1CCCC1)c1ccccc12 (centres undefined)	-4.57%
CCc1nc(C2CCCN2Cc2nc(C3CC3)no2)no1 (centres undefined)	-5.95%
CC(NC(=O)c1ccc(=O)n(C)c1)c1ccc(OCC2CC2)c(F)c1 (centres undefined)	-11.1%
CCOc1ncccc1CNS(=O)(=O)N1CCOCC1	15.2%
CN(CCO)Cc1cc(=O)n2cc(Br)ccc2n1	-1.02%
Cc1ccc(CCC(=O)N2CCCC(c3cc(C(N)=O)[nH]n3)C2)cc1 (centres undefined)	0.115%
CCNC(=O)N(C)C(c1ccccc1)c1ccccn1 (centres undefined)	-4.29%
CSCCCN1CC[C@@]2(O)CCN(c3ncccn3)C[C@H]2C1	-2.32%

SMILES	cytotoxicity at 70.5 h
Cc1ccc(S(=O)(=O)N2C[C@H](C3CC3)[C@@H](N)C2)cc1F	-3.15%
CN(C)c1cc(CNC(=O)c2cn(-c3ccc(F)cc3)nn2)ccn1	-8.15%
CC(C)c1ncc2c(n1)CN(Cc1cccc(C(N)=O)c1)CC2	-4.48%
O=C(Cc1ccc2c(c1)CCO2)N1CCN(c2ccccn2)CC1	2.5%
O=C(c1nn(-c2ccccc2F)cc1O)N1CCCC1	-2.52%
Nc1cnc(-c2cccc3ccnn23)cn1	14.2%
NS(=O)(=O)NCC1(c2ccccc2Br)CC1	0.0399%
Cc1noc([C@@H]2C[C@H](NC(=O)C3CCCCC3)CN2C)n1	0.213%
CN(C)CC(=O)N1Cc2nnn(C)c2C(COCC2CC2)C1 (centres undefined)	-11.8%
Cc1ccc(C(O)CNC(=O)Nc2cc(C)nn2C)cc1 (centres undefined)	-3.09%
CCSc1cc(C(=O)NCCC(=O)Nc2ccccn2)ccn1	-3.16%
Cc1ccnc2c1NC(=O)CN2C(=O)CCc1ccccc1	-13.4%
COc1ccccc1C(O)CNC(=O)NCc1csc(C)n1 (centres undefined)	1.19%
NC(=O)c1nc(-c2cccc(Cl)c2)oc1N	-14.1%
CCCN1CC2(CCN(C)CC2)CC1C(=O)NCCn1ccc(C)n1 (centres undefined)	-1.37%
CN(C)C(=O)c1ccc(OC2CCCC2)cc1	-7%
COc1ccc2[nH]c3c(c2c1)CN(c1cc(NCCO)nc(N)n1)CC3	-3.57%
O=C1NCC2(CCCN(Cc3ccncc3)C2)Oc2ccccc21 (centres undefined)	-8.47%
Cc1cnn(CC2CCCCN2CC(=O)Nc2cccnc2)c1 (centres undefined)	0.635%
COc1ccc(COCC(O)CN(C)c2ccc(C)cc2C)cc1 (centres undefined)	0.463%
CC(=O)Nc1nc(C)c(S(=O)(=O)NCCc2cccnc2)s1	1.62%
CN1CCC(c2nccnc2Nc2cnccn2)CC1	-0.843%
CCCc1nnc(NC(=O)NC(CCO)c2cccs2)s1 (centres undefined)	-3.88%

SMILES	cytotoxicity at 70.5 h
CCC1CCCCN1Cc1ncc(-c2ccc(OC)cc2)o1 (centres undefined)	18.3%
CC(=O)N1C[C@@H](c2ccsc2)[C@@H]2CN(CC3CCCCC3)CC[C@@H]21	-5.59%
Cc1cc(CN(C)C2CCCN(Cc3noc(C)n3)C2)no1 (centres undefined)	7.31%
CCc1ccc(C(=O)N2CCCCC2Cn2cccn2)o1 (centres undefined)	6.61%
Cn1ccnc1CN1C[C@@H](F)[C@@H](OCc2nc3cnccc3[nH]2)C1	13.1%
O=C(c1ccco1)N1CCC(CSCc2ccco2)CC1	-7.2%
Cc1csc(N2CCN(CCc3ccccn3)CC2C)n1 (centres undefined)	-10.7%
CC(C)[C@H]1COC(=O)N1CC(=O)N1CCN(C(=O)c2ccco2)CC1	8.43%
CC(C)NC(=O)NC[C@H]1OC[C@@H](NCc2ccncc2)[C@@H]1O	-3.41%
Cc1nc(N2CCOCC2)ncc1-c1cc(O)nc(N2CCCCC2)n1	14.1%
Cc1ccc(CN2CCC(O)(Cn3ccc4ncccc43)CC2)o1	-0.742%
CC(C)n1cnnc1CCNCc1cn(CCC(N)=O)c2ccccc12	-0.781%
COCC(=O)NC[C@H]1C[C@@H]2CCN1C[C@@H]2CN1CCc2ccccc21	-3.32%
COc1ccc(-c2noc(C3CC(C(C)C)=NO3)n2)cc1 (centres undefined)	1.77%
CCCN1CCC(N2CCOC(Cc3cccc(OC)c3)C2)CC1 (centres undefined)	9.86%
CC(=O)c1cc(CN2C[C@@H](N(C)C)[C@H](C(C)C)C2)cs1	8.63%
CO[C@H]1CN(C(=O)c2ccc(C)o2)[C@@H]2CCCO[C@H]12	-0.145%
CSc1ccc(CN2CCC(CCC(=O)Nc3ccccc3)CC2)cc1	8.45%
O=C(NCCc1cccnc1)c1ccc2nccn2c1	-16.8%
O=C(NCCCN1CCOCC1)c1cc(-c2ccco2)[nH]n1	-11.6%
NS(=O)(=O)NCc1cc(-c2ccco2)n(CC(F)(F)F)n1	-5.08%
CN(Cc1nnc(C2CC2)n1C)C(=O)c1ccnc(OC2CCC2)c1	-10.6%
